Data reported in US12552826B2, “PRMT5 inhibitors” (Merck Sharp & Dohme LLC, priority 2018, dated 2026).
Where two headings read alike, the source gives them in different places.

How the values were obtained:
PRMT5 = target: T1, PRMT5 (Homo sapiens, UniProt O14744); assay: PRMT5 Cell Target Engagement (TE) Assay; format: cell-based; conditions: MCF-7 cells, 3 days treatment, nuclear SDMA by high content imaging
T1 construct: endogenous in cells; host or cells: MCF-7
Outline: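 MCF-7 cells seeded 5 h, then treated 3 days at 37 °C with 10-point 1:3 dilutions from 10000 nM. Fixed cells immunostained for SDMA with AF488 secondary; nuclear intensity imaged per cell and expressed as % inhibition vs DMSO. EC50 from 4-parameter robust fit.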

[1] = target: T2, PRMT5-MEP50 enzyme complex (Homo sapiens, UniProt O14744); assay: PRMT5-MEP50 Enzyme Methylation Assay; format: biochemical
T2 construct: Full-length (FL)-PRMT5-MEP50 enzyme complex (recombinant proteins from baculovirus-transfected Sf21 cells); made in house; host or cells: baculovirus-transfected Sf21 insect cells
T2 sequence (O14744 whole entry): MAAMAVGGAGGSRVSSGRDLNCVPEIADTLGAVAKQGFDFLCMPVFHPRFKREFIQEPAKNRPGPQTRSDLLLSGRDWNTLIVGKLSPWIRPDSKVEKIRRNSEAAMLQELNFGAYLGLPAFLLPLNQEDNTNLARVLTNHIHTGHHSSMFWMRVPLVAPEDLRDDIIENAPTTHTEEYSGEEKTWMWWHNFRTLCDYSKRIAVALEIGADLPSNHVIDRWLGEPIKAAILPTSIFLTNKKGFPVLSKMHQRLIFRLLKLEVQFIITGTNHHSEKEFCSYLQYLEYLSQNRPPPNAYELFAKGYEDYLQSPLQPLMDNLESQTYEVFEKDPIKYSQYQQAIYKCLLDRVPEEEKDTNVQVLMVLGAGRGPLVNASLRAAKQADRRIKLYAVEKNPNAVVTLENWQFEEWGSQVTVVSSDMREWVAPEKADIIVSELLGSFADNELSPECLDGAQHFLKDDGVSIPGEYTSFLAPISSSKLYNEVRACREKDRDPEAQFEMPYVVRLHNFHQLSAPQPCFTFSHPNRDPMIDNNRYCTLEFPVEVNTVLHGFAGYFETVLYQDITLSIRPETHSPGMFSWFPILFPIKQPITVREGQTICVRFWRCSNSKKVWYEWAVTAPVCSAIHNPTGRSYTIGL
T2 sequence (Q9BQA1 whole entry partner): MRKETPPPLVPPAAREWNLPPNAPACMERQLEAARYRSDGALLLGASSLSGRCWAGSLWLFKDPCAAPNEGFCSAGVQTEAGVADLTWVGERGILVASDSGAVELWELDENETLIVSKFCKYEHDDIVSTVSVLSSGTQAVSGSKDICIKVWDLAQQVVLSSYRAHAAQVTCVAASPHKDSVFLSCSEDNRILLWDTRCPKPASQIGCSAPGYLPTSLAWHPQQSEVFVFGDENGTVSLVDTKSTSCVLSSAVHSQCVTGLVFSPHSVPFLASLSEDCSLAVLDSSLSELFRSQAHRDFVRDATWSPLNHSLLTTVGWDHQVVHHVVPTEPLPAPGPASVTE
Protocol: PRMT5-MEP50 biochemical assay is a direct measurement of the methylation activity of the enzyme complex on a short peptide substrate derived from the N-terminus of H4 histone. Methylation experiment is performed with recombinant PRMT5-MEP50 protein complex. The assessment of inhibitory effect of small molecules is measured by the effectiveness of the compounds to inhibit this reaction (EC50).
In this assay, the potency (EC50) of each compound was determined from a twenty-point (1:2 serial dilution; top compound concentration of 100000 nM) titration curve using the following outlined procedure. To each well of a white ProxiPlus 384 well-plate, 100 nL of compound (1% DMSO in final assay volume of 10 μL) was dispensed, followed by the addition of 8 μL of 1× assay buffer (50 mM Bicine pH 8.0, 1 mM DTT, 0.004% Tween20, 0.01% BSA) containing 1.25 nM of Full-length (FL)-PRMT5-MEP50 enzyme complex (recombinant proteins from baculovirus-transfected Sf21 cells: FL-PRMT5; MW=[…] and FL-MEP50; MW=38614) and 1 μL of 150 μM S-(5′-Adenosyl)-L-Methionine Chloride (SAM). Plates were sealed and placed in a 37° C. humidified chamber for a 60 minutes pre-incubation with compound. Subsequently, each reaction was initiated by the addition of 1 μL 1× assay buffer containing 750 nM biotinylated H4R3 (Me1) peptide. The final reaction in each well of 10 μL consists of 1.0 nM PRMT5-MEP50, 75 nM biotinylated-peptide, and 15 μM SAM. Methylation reactions were allowed to proceed for 150 minutes in a sealed plate at 37° C. Reactions were immediately quenched by the addition of 1 μL of 5% formic acid. Plates were then frozen and shipped to SAMDITM Tech Inc. to determine the percent conversion from H4R^3 (Me1) to H4R^3 (Me2). Dose-response curves were generated by plotting percent effect (% product conversion; Y-axis) vs. Log10 compound concentrations (X-axis). EC50 values were determined by non-linear regression according to models for either sigmoidal (4 parameters) or biphasic (7 parameters) dose-response curves.

T1 sequence (O14744 whole entry): as the sequence (O14744 whole entry) above
T1 sequence (Q9BQA1 whole entry partner): as the sequence (Q9BQA1 whole entry partner) above

EC50 (PRMT5): > 10 µM
EC50 ([1]; recombinant FL-PRMT5-MEP50, biotinylated H4R3(Me1) peptide, 15 μM SAM, single EC50 (4 parameter sigmoidal fit) or first EC50 of 7 parameter biphasic fit, read-out: Enzyme Methylation Assay (EC50 or EC50_1)): 0.343 µM
EC50 ([1]; second EC50 of 7 parameter biphasic fit, read-out: Enzyme Methylation Assay (EC50_2)): 33.1 µM
Structure (SMILES): Cc1ncnc2c1ccn2[C@@H]1O[C@H]([C@H](C)c2cccc3c2CNCC3)[C@@](C)(O)[C@H]1O [Example 86, (2R,3S,4R,5R)-3-methyl-5-(4-methyl-7H-pyrrolo[2,3-d]pyrimidin-7-yl)-2-((R)-1-(1,2,3,4-tetrahydroisoquinolin-8-yl)ethyl)tetrahydrofuran-3,4-diol]
